The nature of data set [1]: Pharmacokinetic evaluation in rats. Type of data set: in vivo, Male SD rats. Conditions: rat; for AUC(0-inf) / half-life / bioavailability / Cmax: male, SD, plasma; for AUC(0-inf): read-out: Area under curve AUC0-inf; for half-life: read-out: Half-life t½ (converted); for bioavailability / Bioavailability F: Oral 10 mg/kg vs I.V. 5 mg/kg; for bioavailability: read-out: Bioavailability F; for Cmax: read-out: Blood Drug Level Cmax. On the procedure:
Pharmacokinetic Evaluation
Male SD rats (purchased from Vital River Laboratory Animal Technology Co., Ltd.), each weighing 180 to 240 g, were fasted overnight but allowed access to water. Three rats were administered by oral gavage at a dose of 10 mg/kg, and three rats were intravenously injected at 5 mg/kg. For the oral administration group, the compounds were formulated into 1.0 mg/mL suspensions with a 0.5% methylcellulose (MC) solution, and 200 μl blood was sampled before administration and 30 min, 1 h, 2 h, 4 h, 6 h, 8 h, 12 h and 24 h after administration. For the intravenous injection (I.V.) group, the compounds were formulated into 1.0 mg/ml solutions with physiological saline, and blood was sampled before administration and 5 min, 15 min, 30 min, 1 h, 2 h, 4 h, 8 h, 12 h and 24 h after administration. The blood samples were all anticoagulated with heparin, and centrifuged at 5500 rpm for 10 min to collect plasma, which was stored at −20° C. 10 μl plasma of rats for each of the time points was mixed with a 500 μl acetonitrile solution containing an internal standard, vortexed for 10 min, and centrifuged at 3700 rpm for 18 min. 50 μl of the supernatant was mixed with 100 μl water and vortexed for 10 min. 5 μl of the mixture was subjected to an LC-MS/MS analysis to determine the blood drug level of the parent drugs. The main pharmacokinetic parameters were analyzed using the software WinNonlin 6.3 at the non-compartment mode.

Data set [2] has as its system pain in diabetic peripheral neuropathy. Conditions: patients with diabetic peripheral neuropathy; cited from earlier work.

Each structure is given as a SMILES string. Like-named read-outs stand apart in the source and are kept apart here.

As for `NC[C@@]1(CC(=O)O)[C@@H]2C[C@@H]3CC[C@H]1[C@H]2C3` (racemic) [Example 1, (±)-2-((1R,2R,3S,6R,8R)-2-(aminomethyl)tricyclo[4.2.1.0^3,8]nonan-2-yl)acetic acid], in data set [1] (iv, 5 mg/kg, I.V., 5 mg/kg), the AUC(0-inf) came out at 6800 ng·h/mL and the half-life is 1.3 h. The bioavailability in data set [1] (po, 10 mg/kg) was 95%. Moreover, in data set [1] (po, 10 mg/kg, Oral, 10 mg/kg), the AUC(0-inf) is 12900 ng·h/mL, the Cmax stood at 3000 ng/mL and the half-life was 2.3 h.

Take `NC[C@@]1(CC(=O)O)[C@@H]2C[C@@H]3CC[C@H]1[C@H]2C3` (racemic) [Example 2, (±)-2-((1R,2R,3S,6R,8R)-2-(aminomethyl)tricyclo[4.2.1.0^3,8]nonan-2-yl)acetic acid benzenesulfonic acid (1:1)]: in data set [1] (I.V., 5 mg/kg), the “Area under curve AUC0-inf” value was found to be 8147 ng·h/mL and the “Half-life t½” value amounted to 1.40 h. For the same compound, the “Bioavailability F” value in data set [1] stood at 83.0%. In addition, in data set [1] (Oral, 10 mg/kg), the “Area under curve AUC0-inf” value was determined as 13473 ng·h/mL, the “Blood Drug Level Cmax” value stood at 3789 ng/mL and the “Half-life t½” value came out at 1.40 h.

For `NC[C@@]1(CC(=O)O)C2CC[C@H]3C[C@@H]2[C@@H]1C3` (single isomer, unassigned) [Example 5], in data set [1] (iv, 5 mg/kg, I.V., 5 mg/kg), the AUC(0-inf) came out at 8210 ng·h/mL and the half-life was 2.4 h. Further, the bioavailability in data set [1] (po, 10 mg/kg) stood at 87%. Also, in data set [1] (po, 10 mg/kg, Oral, 10 mg/kg), the AUC(0-inf) is 14200 ng·h/mL, the Cmax stood at 4490 ng/mL and the half-life was 1.6 h.

In the case of `NCC1(CC(=O)O)C2CCC3CC2C1C3` (stereo not shown) [Example 6], in data set [1] (iv, 5 mg/kg, I.V., 5 mg/kg), the AUC(0-inf) was determined as 8210 ng·h/mL and the half-life is 2.4 h. In addition, the bioavailability in data set [1] (po, 10 mg/kg) came to 83.2%. In data set [1] (po, 10 mg/kg, Oral, 10 mg/kg), the AUC(0-inf) worked out at 13700 ng·h/mL, the Cmax was 3710 ng/mL and the half-life was 1.4 h.

As for `NC[C@@]1(CC(=O)O)[C@@H]2C[C@H]3C[C@@H]2[C@@H]1C3` [Example 7, 2-(4-(aminomethyl)tricyclo[3.2.1.0^3,6]octan-4-yl)acetic acid], in data set [1] (iv, 5 mg/kg, I.V., 5 mg/kg), the AUC(0-inf) stood at 11800 ng·h/mL and the half-life was 1.2 h. For the same compound, in data set [1] (po, 10 mg/kg), the bioavailability turned out to be 97%. Further, in data set [1] (po, 10 mg/kg, Oral, 10 mg/kg), the AUC(0-inf) was 23000 ng·h/mL, the Cmax worked out at 9140 ng/mL and the half-life is 1.1 h.

Regarding `NC[C@@]1(CC(=O)O)[C@@H]2C[C@H]3C[C@@H]2[C@@H]1C3` [Example 8, 2-(4-(aminomethyl)tricyclo[3.2.1.0^3,6]octan-4-yl)acetic acid benzenesulfonic acid (1:1)], in data set [1] (I.V., 5 mg/kg), the “Area under curve AUC0-inf” value came to 11788 ng·h/mL and the “Half-life t½” value came out at 1.20 h. Besides, in data set [1], the “Bioavailability F” value is 107.9%. In addition, in data set [1] (Oral, 10 mg/kg), the “Area under curve AUC0-inf” value came out at 25443 ng·h/mL, the “Blood Drug Level Cmax” value came to 8004 ng/mL and the “Half-life t½” value worked out at 2.10 h.

On to `NCC1(CC(=O)O)CCCCC1` [gabapentin], for which the “proportion of patients whose pain is relieved to a great extent” value in data set [2] is “approximately 60%”.

For orientation: half-life means the time in which the quantity being followed falls by half. A word on the bioavailability: it is dose-corrected exposure relative to a reference, in per cent. As usually defined, the Cmax is the peak of the concentration-time curve.

(Values after patent US10654794B2, “Fused tricyclic Γ-amino acid derivative, preparation method therefor, and medical use thereof” (SICHUAN HAISO PHARMACEUTICAL CO., LTD., priority 2016, dated 2020).)
